The values below are quoted from earlier work in PubChem BioAssay AID1259409 (Chemical Carcinogenesis Research Information System (CCRIS), 2018).

The series deals with rodent chemically induced tumor inhibition, incidence and multiplicity. As to the kind of experiment: CCRIS tumor inhibitor studies. The settings on record: Route [Inhibitor]: ORAL, Species: HAMSTER, Promoter: NONE USED.

On to `CCNC(=O)/C=C(C)/C=C/C=C(C)/C=C/C1=C(C)CCCC1(C)C`, for which the “tumour outcome (control, treated, inhibition, significance)” value reads like this: (Carcinogen: N-NITROBIS(2-OXOPROPYL)AMINE, 60559-38-4, Dose [Inhibitor]: 0.5 OR 1.0 MMOL/KG DIET DAILY STARTING 1 WK AFTER CARCINOGEN TREATMENT AND CONTINUING THROUGH THE END OF THE STUDY (STUD, Strain/Sex: SYRIAN/MALE, Target Tissue: Type of Lesion: ND: TOTAL TUMOR, Dose [Carcinogen]: 40 MG/KG BW SINGLE ONCE) 20/24 (83%), 37/40 (90%), -8%, not significant; (Carcinogen: N-NITROBIS(2-OXOPROPYL)AMINE, 60559-38-4, Dose [Inhibitor]: 0.5 OR 1.0 MMOL/KG DIET DAILY STARTING 1 WK AFTER CARCINOGEN TREATMENT AND CONTINUING THROUGH THE END OF THE STUDY (STUD, Strain/Sex: SYRIAN/MALE, Target Tissue: Type of Lesion: PANCREAS: DUCTULAR ADENOMA, Dose [Carcinogen]: 10 MG/KG BW ONCE) 3/22 (14%), 16/30 (53%), -279%, p<0.05; (Carcinogen: N-NITROBIS(2-OXOPROPYL)AMINE, 60559-38-4, Dose [Inhibitor]: 0.5 OR 1.0 MMOL/KG DIET DAILY STARTING 1 WK AFTER CARCINOGEN TREATMENT AND CONTINUING THROUGH THE END OF THE STUDY (STUD, Strain/Sex: SYRIAN/MALE, Target Tissue: Type of Lesion: PANCREAS: DUCTULAR ADENOMA, Dose [Carcinogen]: 40 MG/KG BW ONCE) 8/24 (33%), 33/40 (82%), -148%, not significant; (Carcinogen: N-NITROBIS(2-OXOPROPYL)AMINE, 60559-38-4, Dose [Inhibitor]: 0.5 OR 1.0 MMOL/KG DIET DAILY STARTING 1 WK AFTER CARCINOGEN TREATMENT AND CONTINUING THROUGH THE END OF THE STUDY (STUD, Strain/Sex: SYRIAN/MALE, Target Tissue: Type of Lesion: PANCREAS: DUCTULAR CARCINOMA, Dose [Carcinogen]: 10 MG/KG BW ONCE) 4/22 (18%), 10/30 (33%), -83%, not significant; (Carcinogen: N-NITROBIS(2-OXOPROPYL)AMINE, 60559-38-4, Dose [Inhibitor]: 0.5 OR 1.0 MMOL/KG DIET DAILY STARTING 1 WK AFTER CARCINOGEN TREATMENT AND CONTINUING THROUGH THE END OF THE STUDY (STUD, Strain/Sex: SYRIAN/MALE, Target Tissue: Type of Lesion: PANCREAS: DUCTULAR CARCINOMA, Dose [Carcinogen]: 40 MG/KG BW ONCE) 5/24 (21%), 20/40 (50%), -138%, not significant; (Carcinogen: N-NITROBIS(2-OXOPROPYL)AMINE, 60559-38-4, Dose [Inhibitor]: 0.5 OR 1.0 MMOL/KG IN DIET STARTING 1 WK AFTER CARCINOGEN DOSE FOR DURATION OF STUDY (STUDY DURATION: 40 WK), Strain/Sex: SYRIAN/FEMALE, Target Tissue: Type of Lesion: LIVER: BENIGN TUMOR, Dose [Carcinogen]: 40 MG/KG BW SINGLE INJECTION) 4/20 (20%), 17/37 (46%), -130%, not significant. The “tumour outcome (control, treated, inhibition, significance)” value (Carcinogen: N-NITROBIS(2-OXOPROPYL)AMINE, 60559-38-4, Dose [Inhibitor]: 0.5 OR 1.0 MMOL/KG IN DIET STARTING 1 WK AFTER CARCINOGEN DOSE FOR DURATION OF STUDY (STUDY DURATION: 40 WK), Strain/Sex: SYRIAN/MALE, Target Tissue: Type of Lesion: LIVER: BENIGN TUMOR, Dose [Carcinogen]: 40 MG/KG BW SINGLE INJECTION) is 5/24 (21%), 25/41 (62%), -195%, p<0.05; the “tumour outcome (control, treated, inhibition, significance)” value (Carcinogen: N-NITROBIS(2-OXOPROPYL)AMINE, 60559-38-4, Dose [Inhibitor]: 0.5 OR 1.0 MMOL/KG/D IN DIET STARTING 1 WK AFTER CARCINOGEN TREATMENT AND CONTINUING THROUGH THE END OF THE STUDY (STUDY, Strain/Sex: SYRIAN/FEMALE, Target Tissue: Type of Lesion: PANCREAS: DUCTULAR ADENOMA, Dose [Carcinogen]: 10 MG/KG BW ONCE) is given as 5/23 (23%), 13/25 (52%), -126%, not significant; the “tumour outcome (control, treated, inhibition, significance)” value (Carcinogen: N-NITROBIS(2-OXOPROPYL)AMINE, 60559-38-4, Dose [Inhibitor]: 0.5 OR 1.0 MMOL/KG/D IN DIET STARTING 1 WK AFTER CARCINOGEN TREATMENT AND CONTINUING THROUGH THE END OF THE STUDY (STUDY, Strain/Sex: SYRIAN/FEMALE, Target Tissue: Type of Lesion: PANCREAS: DUCTULAR ADENOMA, Dose [Carcinogen]: 40 MG/KG BW ONCE) is listed as 12/20 (60%), 27/37 (73%), -22%, not significant; the “tumour outcome (control, treated, inhibition, significance)” value (Carcinogen: N-NITROBIS(2-OXOPROPYL)AMINE, 60559-38-4, Dose [Inhibitor]: 0.5 OR 1.0 MMOL/KG/D IN DIET STARTING 1 WK AFTER CARCINOGEN TREATMENT AND CONTINUING THROUGH THE END OF THE STUDY (STUDY, Strain/Sex: SYRIAN/FEMALE, Target Tissue: Type of Lesion: PANCREAS: DUCTULAR CARCINOMA, Dose [Carcinogen]: 10 MG/KG BW ONCE) was 6/23 (27%), 6/25 (24%), 11%, not significant; the “tumour outcome (control, treated, inhibition, significance)” value (Carcinogen: N-NITROBIS(2-OXOPROPYL)AMINE, 60559-38-4, Dose [Inhibitor]: 0.5 OR 1.0 MMOL/KG/D IN DIET STARTING 1 WK AFTER CARCINOGEN TREATMENT AND CONTINUING THROUGH THE END OF THE STUDY (STUDY, Strain/Sex: SYRIAN/MALE, Target Tissue: Type of Lesion: PANCREAS: DUCTULAR ADENOMA, Dose [Carcinogen]: 10 MG/KG BW ONCE) is given as 3/22 (14%), 16/30 (53%), -279%, p<0.05; the “tumour outcome (control, treated, inhibition, significance)” value (Carcinogen: N-NITROBIS(2-OXOPROPYL)AMINE, 60559-38-4, Dose [Inhibitor]: 0.5 OR 1.0 MMOL/KG/D IN DIET STARTING 1 WK AFTER CARCINOGEN TREATMENT AND CONTINUING THROUGH THE END OF THE STUDY (STUDY, Strain/Sex: SYRIAN/MALE, Target Tissue: Type of Lesion: PANCREAS: DUCTULAR ADENOMA, Dose [Carcinogen]: 40 MG/KG BW ONCE) is given as 8/24 (33%), 33/40 (82%), -148%, not significant. Also, the “tumour outcome (control, treated, inhibition, significance)” value by setting is: (Carcinogen: N-NITROBIS(2-OXOPROPYL)AMINE, 60559-38-4, Dose [Inhibitor]: 0.5 OR 1.0 MMOL/KG/D IN DIET STARTING 1 WK AFTER CARCINOGEN TREATMENT AND CONTINUING THROUGH THE END OF THE STUDY (STUDY, Strain/Sex: SYRIAN/MALE, Target Tissue: Type of Lesion: PANCREAS: DUCTULAR CARCINOMA, Dose [Carcinogen]: 10 MG/KG BW ONCE) 4/22 (18%), 10/30 (33%), -83%, not significant; (Carcinogen: N-NITROBIS(2-OXOPROPYL)AMINE, 60559-38-4, Dose [Inhibitor]: 0.5 OR 1.0 MMOL/KG/D IN DIET STARTING 1 WK AFTER CARCINOGEN TREATMENT AND CONTINUING THROUGH THE END OF THE STUDY (STUDY, Strain/Sex: SYRIAN/MALE, Target Tissue: Type of Lesion: PANCREAS: DUCTULAR CARCINOMA, Dose [Carcinogen]: 40 MG/KG BW ONCE) 5/24 (21%), 20/40 (50%), -138%, not significant; (Carcinogen: N-NITROBIS(2-OXOPROPYL)AMINE, 60599-38-4, Dose [Inhibitor]: 0.5 OR 1 MMOL/KG DIET DAILY STARTING 1 WK AFTER CARCINOGEN TREATMENT AND CONTINUING THROUGH THE END OF THE STUDY (STUDY, Strain/Sex: SYRIAN/FEMALE, Target Tissue: Type of Lesion: PANCREAS: DUCTULAR CARCINOMA, Dose [Carcinogen]: 40 MG/KG BW ONCE) 6/20 (30%), 16/37 (43%), -43%, not significant; (Carcinogen: N-NITROBIS(2-OXOPROPYL)AMINE, 60599-38-4, Dose [Inhibitor]: 0.5 OR 1.0 MMOL/KG/D IN DIET STARTING 1 WK AFTER CARCINOGEN TREATMENT AND CONTINUING THROUGH THE END OF THE STUDY (STUDY, Strain/Sex: SYRIAN/FEMALE, Target Tissue: Type of Lesion: PANCREAS: DUCTULAR CARCINOMA, Dose [Carcinogen]: 40 MG/KG BW ONCE) 6/20 (30%), 16/37 (43%), -43%, not significant; (Carcinogen: N-NITROSOBIS(2-OXYPROPYL)AMINE, 60599-38-4, Dose [Inhibitor]: 0.05, 0.1 OR 0.2 MILLIMOLAR/KG DIET FOR 32 WK STARTING 1 WK AFTER THE CARCINOGEN DOSE (STUDY DURATION: 33 WK), Strain/Sex: SYRIAN/FEMALE, Target Tissue: Type of Lesion: COMMON DUCT: ADENOMA, Dose [Carcinogen]: 40 MG/KG ONCE) 4/10 (40%), 7/26 (32%), 20%, not significant.
